# In patent US20240140895A1, “NOVEL AROMATIC MOLECULES” (XENIOPRO GmbH, priority 2018, published 2024):
# System: CAL-27 cells (human tongue squamous cell carcinoma cells)
# Test: Proliferation assay (alamarBlue) with CAL-27 cells
# Assay type: cell-based
# Conditions: read-out: Activity Range: weighted arithmetic mean (AVEw) of normalized fluorescence intensity relative to DMSO basis level 1.0
# Excerpt: (§1) The antiproliferative activities of compounds falling under formula (Ia), (Tb) and (Ic), respectively, were investigated on cells or cell lines originating from a disorder of the haematopoietic system, including the myeloid cell compartment and the lymphoid cell compartment (T-cells and B-cells), the neuroendocrine system, the cervix, the breast, the ovaries, the lung, the gastrointestinal tract, and the mucosal epithelium, as well as from the skin epithelium and from the muscle. To this end, HL-60 cells, NB-4 cells, HH cells, RPMI-8402 cells, TANOUE cells, TT cells, HeLa cells, MDA-MB-231 cells, FU-OV-1 cells, LOU-NH91 cells, 23132/87 cells, CAL-27 cells, BHY cells, SCC-25 cells, A-431 cells, human primary epidermal keratinocytes (HPEK), and C2C12 cells were seeded into 96-well plates suitable for fluorescence assays (CORNING #3598) at following initial cell numbers: 1000 cells per well for HL-60; 1000 cells per well for NB-4; 5000 cells per well for HH; 5000 cells per well for RPMI-8402; 1500 cells per well for TANOUE; 9000 cells per well for TT; 2000 cells per well for HeLa; 3000 cells per well for MDA-MB-231; 3000 cells per well for FU-OV-1; 4000 cells per well for LOU-NH91; 2000 cells per well for 23132/87; 2000 cells per well for CAL-27; 1500 cells per well for BHY; 1500 cells per well for SCC-25; 700 cells per well for A-431; 1000 cells per well for HPEK; 500 cells per well for C2-C12. The cells were treated with compounds at indicated final concentrations (diluted from the 1000× stock-solutions in DMSO to a final DMSO concentration of 0.1% v/v in H2O (Water For Injection, WFI, Fisherscientific #10378939)) or with the empty carrier DMSO at 0.1% v/v as control for 5 days. At day 5 after starting the treatments the cells were subjected to the alamarBlue® Proliferation Assay (Bio-Rad Serotec GmbH, BUF012B) according to the protocol of the manufacturer. The readout was taken with a multi-well plate-reader in the fluorescence mode with applying a filter for excitation at 560 nm (band width 10 nm) and for emission at 590 nm (band width 10 nm). Control treatments for growth inhibition with commercial compounds such as Methotrexate (MTREX) and Resveratrol (RES) were included on every plate. Some of the test compounds of the present invention were obtained and applied as their salts. According cases are indicated in the column “Specification” in Table 30 to Table 62 and by their sum formula in Table 63.
# (§2) The assays were performed in duplicate or more replicates of independent single experiments each containing a six-fold replicate for every condition. For every individual plate, the measured fluorescence intensity values of the conditions with compound treatment were normalized against the corresponding equally weighted arithmetic mean of the fluorescence intensity values of the six DMSO treated control wells in order to obtain the relative values to a baseline level of 1.0.
# (§3) Two independent outlier analyses were performed according to the methods by Peirce and Chauvenet (Ross, Journal of Engineering Technology 2003, 1-12). Outliers confirmed by at least one of the methods were excluded from the calculations but not more than one value out of six per compound within a single experiment. The weighted arithmetic mean (here abbreviated as AVEw) for each compound was calculated from the normalized values over all independent replicates of the single experiments comprising the six replicates each. The corresponding standard deviation for the weighted arithmetic mean was calculated according to the method described by Bronstein et al. (Bronstein, Semendjajew, Musiol, Muhlig, Taschenbuch der Mathematik, 5th edition 2001 (German), publisher: Verlag Harri Deutsch, Frankfurt am Main and Thun) and was combined with the Gauβ′ error propagation associated with the performed calculation for the normalization. The resulting standard deviation is herein referred to as “combined standard deviation”. […]
row,SMILES,activity at 20 µM [%]
1,"CCOC(=O)c1ccc(Oc2ccc(CCN(C)C)cc2)cc1 [XPA-0060, ethyl 4-(4-(2-(dimethylamino)ethyl)phenoxy)benzoate]",40 to 60
2,"CCOC(=O)c1ccc(Oc2ccc(C3CCN(C)CC3)cc2)cc1 [XPA-0064, ethyl 4-(4-(1-methylpiperidin-4-yl)phenoxy)benzoate]",0 to 20
3,"OC1(c2ccc(Oc3ccc(C45CC6CC(CC(C6)C4)C5)cc3)cc2)COC1 [XPA-0140, 3-(4-(4-((3r,5r,7r)-adamantan-1-yl)phenoxy)phenyl)oxetan-3-ol]",20 to 40

# System: HPEKp cells (human epidermal keratinocyte progenitors, pooled)
# Test: Proliferation assay (alamarBlue) with HPEKp cells
# Assay type: cell-based
# Conditions: compound at 10 μM, read-out: Activity Range: weighted arithmetic mean (AVEw) of normalized fluorescence intensity, relative to DMSO basis level 1.0
# Excerpt: as §1, §2, §3
row,SMILES,activity at 10 µM [%]
1,"CCOC(=O)c1ccc(Oc2ccc(CCN(C)C)cc2)cc1 [XPA-0060, ethyl 4-(4-(2-(dimethylamino)ethyl)phenoxy)benzoate]",20 to 40
2,"CCOC(=O)c1ccc(Oc2ccc(C3CCN(C)CC3)cc2)cc1 [XPA-0064, ethyl 4-(4-(1-methylpiperidin-4-yl)phenoxy)benzoate]",0 to 20
3,"OC1(c2ccc(Oc3ccc(C45CC6CC(CC(C6)C4)C5)cc3)cc2)COC1 [XPA-0140, 3-(4-(4-((3r,5r,7r)-adamantan-1-yl)phenoxy)phenyl)oxetan-3-ol]",0 to 20

# System: NB-4 cells (human acute promyelocytic leukemia cells)
# Test: Proliferation assay (alamarBlue) with NB-4 cells
# Assay type: cell-based
# Conditions: Homo sapiens, Table 32, compound at 20 μM, read-out: Activity Range (AVEw, weighted arithmetic mean of normalized fluorescence intensity, DMSO = 1.0)
# Excerpt: as §1, §2, §3
row,SMILES,activity at 20 µM [%]
1,"CCOC(=O)c1ccc(Oc2ccc(CCN(C)C)cc2)cc1 [XPA-0060, ethyl 4-(4-(2-(dimethylamino)ethyl)phenoxy)benzoate]",80 to 90
2,"CCOC(=O)c1ccc(Oc2ccc(C3CCN(C)CC3)cc2)cc1 [XPA-0064, ethyl 4-(4-(1-methylpiperidin-4-yl)phenoxy)benzoate]",20 to 40
3,"OC1(c2ccc(Oc3ccc(C45CC6CC(CC(C6)C4)C5)cc3)cc2)COC1 [XPA-0140, 3-(4-(4-((3r,5r,7r)-adamantan-1-yl)phenoxy)phenyl)oxetan-3-ol]",60 to 70

# System: TANOUE cells (human B cell leukemia cells)
# Test: Proliferation assay (alamarBlue) with TANOUE cells
# Assay type: cell-based
# Conditions: Homo sapiens, B-cell, read-out: Activity Range: weighted arithmetic mean (AVEw) of normalized fluorescence intensity relative to DMSO basis level 1.0
# Excerpt: as §1, §2, §3
row,SMILES,activity at 20 µM [%]
1,"CCOC(=O)c1ccc(Oc2ccc(C3CCN(C)CC3)cc2)cc1 [XPA-0064, ethyl 4-(4-(1-methylpiperidin-4-yl)phenoxy)benzoate]",0 to 20
2,"OC1(c2ccc(Oc3ccc(C45CC6CC(CC(C6)C4)C5)cc3)cc2)COC1 [XPA-0140, 3-(4-(4-((3r,5r,7r)-adamantan-1-yl)phenoxy)phenyl)oxetan-3-ol]",0 to 20

# System: BHY cells (human oral squamous cell carcinoma cells)
# Test: Proliferation assay (alamarBlue) with BHY cells
# Assay type: cell-based
# Conditions: read-out: Activity Range: weighted arithmetic mean (AVEw) of normalized fluorescence intensity relative to DMSO basis level 1.0
# Excerpt: as §1, §2, §3
row,SMILES,activity at 20 µM [%]
1,"CCOC(=O)c1ccc(Oc2ccc(CCN(C)C)cc2)cc1 [XPA-0060, ethyl 4-(4-(2-(dimethylamino)ethyl)phenoxy)benzoate]",70 to 80
2,"CCOC(=O)c1ccc(Oc2ccc(C3CCN(C)CC3)cc2)cc1 [XPA-0064, ethyl 4-(4-(1-methylpiperidin-4-yl)phenoxy)benzoate]",0 to 20
3,"OC1(c2ccc(Oc3ccc(C45CC6CC(CC(C6)C4)C5)cc3)cc2)COC1 [XPA-0140, 3-(4-(4-((3r,5r,7r)-adamantan-1-yl)phenoxy)phenyl)oxetan-3-ol]",70 to 80

# System: HH cells (human cutaneous T-cell lymphoma cells)
# Test: Proliferation assay (alamarBlue) with HH cells
# Assay type: cell-based
# Conditions: Table 34, compound at 20 μM, read-out: Activity Range (AVEw, weighted arithmetic mean of normalized fluorescence intensity, DMSO = 1.0)
# Excerpt: as §1, §2, §3
row,SMILES,activity at 20 µM [%]
1,"CCOC(=O)c1ccc(Oc2ccc(CCN(C)C)cc2)cc1 [XPA-0060, ethyl 4-(4-(2-(dimethylamino)ethyl)phenoxy)benzoate]",60 to 70
2,"CCOC(=O)c1ccc(Oc2ccc(C3CCN(C)CC3)cc2)cc1 [XPA-0064, ethyl 4-(4-(1-methylpiperidin-4-yl)phenoxy)benzoate]",40 to 60
3,"OC1(c2ccc(Oc3ccc(C45CC6CC(CC(C6)C4)C5)cc3)cc2)COC1 [XPA-0140, 3-(4-(4-((3r,5r,7r)-adamantan-1-yl)phenoxy)phenyl)oxetan-3-ol]",70 to 80

# System: 23132/87 cells (human gastric adenocarcinoma cells)
# Test: Proliferation assay (alamarBlue) with 23132/87 cells
# Assay type: cell-based
# Conditions: read-out: Activity Range: weighted arithmetic mean (AVEw) of normalized fluorescence intensity relative to DMSO basis level 1.0
# Excerpt: as §1, §2, §3
row,SMILES,activity at 20 µM [%]
1,"CCOC(=O)c1ccc(Oc2ccc(C3CCN(C)CC3)cc2)cc1 [XPA-0064, ethyl 4-(4-(1-methylpiperidin-4-yl)phenoxy)benzoate]",70 to 80
2,"OC1(c2ccc(Oc3ccc(C45CC6CC(CC(C6)C4)C5)cc3)cc2)COC1 [XPA-0140, 3-(4-(4-((3r,5r,7r)-adamantan-1-yl)phenoxy)phenyl)oxetan-3-ol]",70 to 80

# System: SCC-25 cells (human tongue squamous cell carcinoma cells)
# Test: Proliferation assay (alamarBlue) with SCC-25 cells
# Assay type: cell-based
# Conditions: Homo sapiens, read-out: Activity Range: weighted arithmetic mean (AVEw) of normalized fluorescence intensity relative to DMSO basis level 1.0
# Excerpt: as §1, §2, §3
row,SMILES,activity at 20 µM [%]
1,"CCOC(=O)c1ccc(Oc2ccc(CCN(C)C)cc2)cc1 [XPA-0060, ethyl 4-(4-(2-(dimethylamino)ethyl)phenoxy)benzoate]",20 to 40
2,"CCOC(=O)c1ccc(Oc2ccc(C3CCN(C)CC3)cc2)cc1 [XPA-0064, ethyl 4-(4-(1-methylpiperidin-4-yl)phenoxy)benzoate]",0 to 20
3,"OC1(c2ccc(Oc3ccc(C45CC6CC(CC(C6)C4)C5)cc3)cc2)COC1 [XPA-0140, 3-(4-(4-((3r,5r,7r)-adamantan-1-yl)phenoxy)phenyl)oxetan-3-ol]",20 to 40

# System: HL-60 cells (human acute myeloid leukemia cells)
# Test: Proliferation assay (alamarBlue) with HL-60 cells
# Assay type: cell-based
# Conditions: Homo sapiens, Table 30, compound at 20 μM, read-out: Activity Range (AVEw, weighted arithmetic mean of normalized fluorescence intensity, DMSO = 1.0)
# Excerpt: as §1, §2, §3
row,SMILES,activity at 20 µM [%]
1,"CCOC(=O)c1ccc(Oc2ccc(C3CCN(C)CC3)cc2)cc1 [XPA-0064, ethyl 4-(4-(1-methylpiperidin-4-yl)phenoxy)benzoate]",70 to 80
2,"OC1(c2ccc(Oc3ccc(C45CC6CC(CC(C6)C4)C5)cc3)cc2)COC1 [XPA-0140, 3-(4-(4-((3r,5r,7r)-adamantan-1-yl)phenoxy)phenyl)oxetan-3-ol]",0 to 20

# System: C2C12 cells (murine myoblast cells)
# Test: Proliferation assay (alamarBlue) with C2C12 cells
# Assay type: cell-based
# Conditions: Mus musculus, compound at 20 μM, read-out: Activity Range: weighted arithmetic mean (AVEw) of normalized fluorescence intensity, relative to DMSO basis level 1.0
# Excerpt: as §1, §2, §3
row,SMILES,activity at 20 µM [%]
1,"CCOC(=O)c1ccc(Oc2ccc(CCN(C)C)cc2)cc1 [XPA-0060, ethyl 4-(4-(2-(dimethylamino)ethyl)phenoxy)benzoate]",40 to 60
2,"CCOC(=O)c1ccc(Oc2ccc(C3CCN(C)CC3)cc2)cc1 [XPA-0064, ethyl 4-(4-(1-methylpiperidin-4-yl)phenoxy)benzoate]",0 to 20
3,"OC1(c2ccc(Oc3ccc(C45CC6CC(CC(C6)C4)C5)cc3)cc2)COC1 [XPA-0140, 3-(4-(4-((3r,5r,7r)-adamantan-1-yl)phenoxy)phenyl)oxetan-3-ol]",70 to 80

# System: MDA-MB-231 cells (human breast carcinoma cells)
# Test: Proliferation assay (alamarBlue) with MDA-MB-231 cells
# Assay type: cell-based
# Conditions: Homo sapiens, read-out: Activity Range: weighted arithmetic mean (AVEw) of normalized fluorescence intensity relative to DMSO basis level 1.0
# Excerpt: as §1, §2, §3
row,SMILES,activity at 20 µM [%]
1,"CCOC(=O)c1ccc(Oc2ccc(CCN(C)C)cc2)cc1 [XPA-0060, ethyl 4-(4-(2-(dimethylamino)ethyl)phenoxy)benzoate]",40 to 60
2,"CCOC(=O)c1ccc(Oc2ccc(C3CCN(C)CC3)cc2)cc1 [XPA-0064, ethyl 4-(4-(1-methylpiperidin-4-yl)phenoxy)benzoate]",40 to 60
3,"OC1(c2ccc(Oc3ccc(C45CC6CC(CC(C6)C4)C5)cc3)cc2)COC1 [XPA-0140, 3-(4-(4-((3r,5r,7r)-adamantan-1-yl)phenoxy)phenyl)oxetan-3-ol]",20 to 40

# System: A-431 cells (human epidermoid squamous cell carcinoma cells)
# Test: Proliferation assay (alamarBlue) with A-431 cells
# Assay type: cell-based
# Conditions: Homo sapiens, 20 μM, read-out: Activity Range: weighted arithmetic mean (AVEw) of normalized fluorescence intensity relative to DMSO basis level 1.0
# Excerpt: as §1, §2, §3
row,SMILES,activity at 20 µM [%]
1,"CCOC(=O)c1ccc(Oc2ccc(CCN(C)C)cc2)cc1 [XPA-0060, ethyl 4-(4-(2-(dimethylamino)ethyl)phenoxy)benzoate]",80 to 90
2,"CCOC(=O)c1ccc(Oc2ccc(C3CCN(C)CC3)cc2)cc1 [XPA-0064, ethyl 4-(4-(1-methylpiperidin-4-yl)phenoxy)benzoate]",0 to 20
3,"OC1(c2ccc(Oc3ccc(C45CC6CC(CC(C6)C4)C5)cc3)cc2)COC1 [XPA-0140, 3-(4-(4-((3r,5r,7r)-adamantan-1-yl)phenoxy)phenyl)oxetan-3-ol]",40 to 60

# System: RPMI-8402 cells (human T cell acute lymphoblastic leukemia cells)
# Test: Proliferation assay (alamarBlue) with RPMI-8402 cells
# Assay type: cell-based
# Conditions: Homo sapiens, read-out: Activity Range: weighted arithmetic mean (AVEw) of normalized fluorescence intensity relative to DMSO basis level 1.0
# Excerpt: as §1, §2, §3
row,SMILES,activity at 20 µM [%]
1,"CCOC(=O)c1ccc(Oc2ccc(CCN(C)C)cc2)cc1 [XPA-0060, ethyl 4-(4-(2-(dimethylamino)ethyl)phenoxy)benzoate]",40 to 60
2,"CCOC(=O)c1ccc(Oc2ccc(C3CCN(C)CC3)cc2)cc1 [XPA-0064, ethyl 4-(4-(1-methylpiperidin-4-yl)phenoxy)benzoate]",0 to 20
3,"OC1(c2ccc(Oc3ccc(C45CC6CC(CC(C6)C4)C5)cc3)cc2)COC1 [XPA-0140, 3-(4-(4-((3r,5r,7r)-adamantan-1-yl)phenoxy)phenyl)oxetan-3-ol]",20 to 40
